Laboratory results from ChEMBL document CHEMBL4229381, “New cytokinin derivatives possess UVA and UVB photoprotective effect on human skin cells and prevent oxidative stress” (Eur J Med Chem, 2018).
Active and inactive are the calls of the source. No cut-off for these calls is given here.

Key:
[1] = Phototoxicity in human NHDF cells assessed as cell viability at 31.3 uM preincubated for 60 mins followed by 5 J/cm2 UVA irradiation and measured after 24 hrs by neutral red uptake assay relative to control; format: cell-based; details: read-out: Activity
[2] = Phototoxicity in human NHDF cells assessed as cell viability at 15.6 uM preincubated for 60 mins followed by 5 J/cm2 UVA irradiation and measured after 24 hrs by neutral red uptake assay relative to control; format: cell-based; details: read-out: Activity
[3] = Phototoxicity in human HaCaT cells assessed as cell viability at 125 uM preincubated for 60 mins followed by 7.5 J/cm2 UVA irradiation and measured after 24 hrs by neutral red uptake assay relative to control; format: cell-based; details: read-out: Activity
[4] = Cytotoxicity in human NHDF cells assessed as cell viability at 31.3 uM after 24 hrs by neutral red uptake assay relative to control; format: cell-based; details: read-out: Activity
[5] = Phototoxicity in human HaCaT cells assessed as cell viability at 62.5 uM preincubated for 60 mins followed by 7.5 J/cm2 UVA irradiation and measured after 24 hrs by neutral red uptake assay relative to control; format: cell-based; details: read-out: Activity
[6] = Cytotoxicity in human HaCaT cells assessed as cell viability at 7.8 uM after 24 hrs by neutral red uptake assay relative to control; format: cell-based; details: read-out: Activity
[7] = Cytotoxicity in human HaCaT cells assessed as cell viability at 62.5 uM after 24 hrs by neutral red uptake assay relative to control; format: cell-based; details: read-out: Activity
HaCaT [8] = test: Potency index, ratio of compound effect to rosmarinic acid effect for cytoprotection against phototoxicity in human HaCaT cells assessed as increase in cell viability at 3.9 uM preincubated for 60 mins followed by 150 mJ/cm2 UVB irradiation and measured after 24 hrs by neutral red uptake assay; format: functional
[9] = Phototoxicity in human NHDF cells assessed as cell viability at 7.8 uM preincubated for 60 mins followed by 5 J/cm2 UVA irradiation and measured after 24 hrs by neutral red uptake assay relative to control; format: cell-based; details: read-out: Activity
[10] = Cytotoxicity in human HaCaT cells assessed as cell viability at 15.6 uM after 24 hrs by neutral red uptake assay relative to control; format: cell-based; details: read-out: Activity
HaCaT [11] = test: Cytoprotection against phototoxicity in human HaCaT cells assessed as increase in cell viability at 3.9 uM preincubated for 60 mins followed by 10 J/cm2 UVA irradiation and measured after 24 hrs by neutral red uptake assay; format: functional, cell-based
Nicotiana tabacum = test: Growth promoting activity in tobacco callus assessed as callus weight at 10^-5 mol/L after 4 weeks relative to control; format: functional
Triticum aestivum = test: Anti-senescent activity in leaf of Triticum aestivum cv. Hereward seedlings by measuring chlorophyll retention at 10^-4 mol/L after 4 days relative to control; format: functional
[12] = Phototoxicity in human HaCaT cells assessed as cell viability at 7.8 uM preincubated for 60 mins followed by 7.5 J/cm2 UVA irradiation and measured after 24 hrs by neutral red uptake assay relative to control; format: cell-based; details: read-out: Activity
[13] = Cytotoxicity in human HaCaT cells assessed as cell viability at 125 uM after 24 hrs by neutral red uptake assay relative to control; format: cell-based; details: read-out: Activity
[14] = Cytotoxicity in human NHDF cells assessed as cell viability at 15.6 uM after 24 hrs by neutral red uptake assay relative to control; format: cell-based; details: read-out: Activity
BJ = test: Cytotoxicity in human BJ cells assessed as reduction in cell viability at 50 uM after 24 hrs by resazurin dye-based fluorescence assay relative to control
[15] = Cytotoxicity in human NHDF cells assessed as cell viability at 3.9 uM after 24 hrs by neutral red uptake assay relative to control; format: cell-based; details: read-out: Activity
[16] = Phototoxicity in human HaCaT cells assessed as cell viability at 15.6 uM preincubated for 60 mins followed by 7.5 J/cm2 UVA irradiation and measured after 24 hrs by neutral red uptake assay relative to control; format: cell-based; details: read-out: Activity
[17] = Cytotoxicity in human NHDF cells assessed as cell viability at 62.5 uM after 24 hrs by neutral red uptake assay relative to control; format: cell-based; details: read-out: Activity
NHDF [18] = test: Cytoprotection against phototoxicity in human NHDF cells assessed as increase in cell viability at 3.9 to 31.3 uM preincubated for 60 mins followed by 150 mJ/cm2 UVB irradiation and measured after 24 hrs by neutral red uptake assay; format: functional, cell-based
[19] = Antioxidant activity assessed as trolox equivalent of AAPH-induced radical scavenging activity at 1 uM pretreated for 15 mins followed by […] challenge measured every 3 mins over 90 mins by ORAC-FL assay; format: functional
[20] = Phototoxicity in human HaCaT cells assessed as cell viability at 3.9 uM preincubated for 60 mins followed by 7.5 J/cm2 UVA irradiation and measured after 24 hrs by neutral red uptake assay relative to control; format: cell-based; details: read-out: Activity
HaCaT [21] = test: Cytoprotection against phototoxicity in human HaCaT cells assessed as increase in cell viability at 3.9 to 31.3 uM preincubated for 60 mins followed by 150 mJ/cm2 UVB irradiation and measured after 24 hrs by neutral red uptake assay; format: functional, cell-based
[22] = Phototoxicity in human NHDF cells assessed as cell viability at 62.5 uM preincubated for 60 mins followed by 5 J/cm2 UVA irradiation and measured after 24 hrs by neutral red uptake assay relative to control; format: cell-based; details: read-out: Activity
[23] = Phototoxicity in human NHDF cells assessed as cell viability at 125 uM preincubated for 60 mins followed by 5 J/cm2 UVA irradiation and measured after 24 hrs by neutral red uptake assay relative to control; format: cell-based; details: read-out: Activity
[24] = Cytotoxicity in human NHDF cells assessed as cell viability at 125 uM after 24 hrs by neutral red uptake assay relative to control; format: cell-based; details: read-out: Activity
HaCaT [25] = test: Cytotoxicity in human HaCaT cells assessed as reduction in cell viability at 50 uM after 24 hrs by resazurin dye-based fluorescence assay relative to control
HaCaT [26] = test: Potency index, ratio […] for cytoprotection against phototoxicity in human HaCaT cells assessed as increase in cell viability at 3.9 preincubated for 60 mins followed by 150 mJ/cm2 UVB irradiation and measured after 24 hrs by neutral red uptake assay; format: functional
[27] = Phototoxicity in human NHDF cells assessed as cell viability at 3.9 uM preincubated for 60 mins followed by 5 J/cm2 UVA irradiation and measured after 24 hrs by neutral red uptake assay relative to control; format: cell-based; details: read-out: Activity
[28] = Phototoxicity in human HaCaT cells assessed as cell viability at 31.3 uM preincubated for 60 mins followed by 7.5 J/cm2 UVA irradiation and measured after 24 hrs by neutral red uptake assay relative to control; format: cell-based; details: read-out: Activity
[29] = Cytotoxicity in human NHDF cells assessed as cell viability at 7.8 uM after 24 hrs by neutral red uptake assay relative to control; format: cell-based; details: read-out: Activity
[30] = Cytotoxicity in human HaCaT cells assessed as cell viability at 31.3 uM after 24 hrs by neutral red uptake assay relative to control; format: cell-based; details: read-out: Activity
[31] = Cytotoxicity in human HaCaT cells assessed as cell viability at 3.9 uM after 24 hrs by neutral red uptake assay relative to control; format: cell-based; details: read-out: Activity
Amaranthus caudatus = test: Growth promoting activity in Amaranthus caudatus var. atropurpurea seeds by measuring betacyanin at 10^-4 mol/L after 48 hrs relative to control; format: functional
[32] = Stability of the compound in pH 4 solution at 10^-4 M after 24 hrs by HPLC analysis; format: physicochemical; details: read-out: Stability
[33] = Stability of the compound in pH 6 solution at 10^-4 M after 1 hr by HPLC analysis; format: physicochemical; details: read-out: Stability
[34] = Stability of the compound in pH 5 solution at 10^-4 M after 24 hrs by HPLC analysis; format: physicochemical; details: read-out: Stability
[35] = Stability of the compound in pH 3 solution at 10^-4 M after 1 hr by HPLC analysis; format: physicochemical; details: read-out: Stability
[36] = Stability of the compound in pH 7 solution at 10^-4 M after 1 hr by HPLC analysis; format: physicochemical; details: read-out: Stability
[37] = Stability of the compound in pH 3 solution at 10^-4 M after 24 hrs by HPLC analysis; format: physicochemical; details: read-out: Stability
[38] = Stability of the compound in pH 7 solution at 10^-4 M after 24 hrs by HPLC analysis; format: physicochemical; details: read-out: Stability
[39] = Stability of the compound in pH 4 solution at 10^-4 M after 1 hr by HPLC analysis; format: physicochemical; details: read-out: Stability
[40] = Stability of the compound in pH 6 solution at 10^-4 M after 24 hrs by HPLC analysis; format: physicochemical; details: read-out: Stability
[41] = Stability of the compound in pH 5 solution at 10^-4 M after 1 hr by HPLC analysis; format: physicochemical; details: read-out: Stability
NHDF [42] = test: Phototoxicity in human NHDF cells assessed as reduction in cell viability preincubated for 60 mins followed by 5 J/cm2 UVA irradiation and measured after 24 hrs by neutral red uptake assay; format: cell-based; details: light or radiation study
HaCaT [43] = test: Phototoxicity in human HaCaT cells assessed as reduction in cell viability preincubated for 60 mins followed by 7.5 J/cm2 UVA irradiation and measured after 24 hrs by neutral red uptake assay; format: cell-based; details: light or radiation study

Structure (SMILES): Clc1nc(NCC2CCCO2)c2ncn(C3CCCO3)c2n1 (stereo unspecified)
- viability at 24 h, 31.3 µM [1]: 103%
- viability at 24 h, 15.6 µM [2]: 100%
- viability at 24 h, 125 µM [3]: 126%
- viability at 24 h, 31.3 µM [4]: 106%
- viability at 24 h, 62.5 µM [5]: 126%
- viability at 24 h, 7.8 µM [6]: 103%
- viability at 24 h, 62.5 µM [7]: 111%
- Ratio (HaCaT [8]): >2
- viability at 24 h, 7.8 µM [9]: 103%
- viability at 24 h, 15.6 µM [10]: 104%
- Activity (HaCaT [11]): inactive
- Activity (Nicotiana tabacum): 104%
- Activity (Triticum aestivum): 111%
- viability at 24 h, 7.8 µM [12]: 112%
- viability at 24 h, 125 µM [13]: 111%
- viability at 24 h, 15.6 µM [14]: 101%
- Activity (BJ): < 10%
- viability at 24 h, 3.9 µM [15]: 103%
- viability at 24 h, 15.6 µM [16]: 110%
- viability at 24 h, 62.5 µM [17]: 102%
- Activity (NHDF [18]): Active
- Activity [19]: < 0.05 equiv
- viability at 24 h, 3.9 µM [20]: 105%
- Activity (HaCaT [21]): Active
- viability at 24 h, 62.5 µM [22]: 105%
- viability at 24 h, 125 µM [23]: 105%
- viability at 24 h, 125 µM [24]: 104%
- Activity (HaCaT [25]): < 10%
- Ratio (HaCaT [26]): >2
- viability at 24 h, 3.9 µM [27]: 100%
- viability at 24 h, 31.3 µM [28]: 121%
- viability at 24 h, 7.8 µM [29]: 103%
- viability at 24 h, 31.3 µM [30]: 109%
- viability at 24 h, 3.9 µM [31]: 104%
- Activity (Amaranthus caudatus): 83%

Structure (SMILES): c1nc(NCC2CCCO2)c2ncn(C3CCCO3)c2n1 (stereo unspecified)
- remaining at 24 h, 100 µM [32]: 44.3%
- remaining at 1 h, 100 µM [33]: 100%
- remaining at 24 h, 100 µM [34]: 92.6%
- remaining at 1 h, 100 µM [35]: 94.3%
- Activity (Nicotiana tabacum): 100%
- Activity (Triticum aestivum): 116%
- remaining at 1 h, 100 µM [36]: 100%
- Activity [19]: < 0.05 equiv
- remaining at 24 h, 100 µM [37]: 0.4%
- remaining at 24 h, 100 µM [38]: 100%
- remaining at 1 h, 100 µM [39]: 100%
- remaining at 24 h, 100 µM [40]: 100%
- remaining at 1 h, 100 µM [41]: 100%
- Activity (Amaranthus caudatus): 38%

Structure (SMILES): CN(C)CCCN1c2ccccc2Sc2ccc(Cl)cc21 [CHLORPROMAZINE]
- IC50 (NHDF [42]): 25.5 µM
- IC50 (HaCaT [43]): 36.1 µM
